{"source": "ChEMBL document CHEMBL1151154", "about": "“Potential inhibitors of platelet aggregation from plant sources, V. Anthraquinones from seeds of Cassia obtusifolia and related compounds” (1990)", "assay_type_in_all_cases": "functional", "key": {"[1]": {"assay": "Antiplatelet activity in rat platelet rich plasma assessed as drug level causing inhibition of arachidonic acid-stimulated platelet aggregation pretreated 2 mins before arachidonic acid challenge"}, "[2]": {"assay": "Antiplatelet activity in rat platelet rich plasma assessed as drug level causing inhibition of collagen-stimulated platelet aggregation pretreated 2 mins before collagen challenge"}, "[3]": {"assay": "Antiplatelet activity in rat platelet rich plasma assessed as drug level causing inhibition of ADP-stimulated platelet aggregation pretreated 2 mins before ADP challenge"}}}
{"compound": "Cc1cc(O)c2c(c1)Cc1cccc(O)c1C2=O", "values": [{"measurement": "Activity", "setting": "[1]", "value": ">0.25", "unit": "mg/mL"}, {"measurement": "Activity", "setting": "[2]", "value": ">0.25", "unit": "mg/mL"}, {"measurement": "Activity", "setting": "[3]", "value": ">0.25", "unit": "mg/mL"}]}
{"compound": "COc1c(O[C@@H]2O[C@H](CO)[C@@H](O)[C@H](O)[C@H]2O)cc2c(c1O)C(=O)c1c(cc(C)c(O)c1OC)C2=O", "values": [{"measurement": "Activity", "setting": "[1]", "value": 0.05, "unit": "mg/mL"}, {"measurement": "Activity", "setting": "[2]", "value": 0.1, "unit": "mg/mL"}, {"measurement": "Activity", "setting": "[3]", "value": 0.05, "unit": "mg/mL"}]}
{"compound": "COc1cc2c(c(OC)c1OC)C(=O)c1c(cc(C)c(O[C@@H]3O[C@H](CO)[C@@H](O)[C@H](O)[C@H]3O)c1OC)C2=O", "values": [{"measurement": "Activity", "setting": "[1]", "value": 0.025, "unit": "mg/mL"}, {"measurement": "Activity", "setting": "[2]", "value": 0.05, "unit": "mg/mL"}, {"measurement": "Activity", "setting": "[3]", "value": 0.025, "unit": "mg/mL"}]}
{"compound": "COc1c(O[C@@H]2O[C@H](CO)[C@@H](O)[C@H](O)[C@H]2O)c(C)cc2c1C(=O)c1c(O)cccc1C2=O", "values": [{"measurement": "Activity", "setting": "[1]", "value": 0.05, "unit": "mg/mL"}, {"measurement": "Activity", "setting": "[2]", "value": 0.1, "unit": "mg/mL"}, {"measurement": "Activity", "setting": "[3]", "value": 0.25, "unit": "mg/mL"}]}
{"compound": "O=C1c2cccc(O)c2C(=O)c2c(O)cc(CO)cc21", "note": "[ALOE-EMODIN]", "values": [{"measurement": "Activity", "setting": "[1]", "value": 0.25, "unit": "mg/mL"}, {"measurement": "Activity", "setting": "[2]", "value": 0.25, "unit": "mg/mL"}, {"measurement": "Activity", "setting": "[3]", "value": ">0.25", "unit": "mg/mL"}]}
{"compound": "O=C1c2ccc(O)cc2C(=O)c2ccc(O)cc21", "note": "[ANTHRAFLAVICACID]", "values": [{"measurement": "Activity", "setting": "[1]", "value": ">0.25", "unit": "mg/mL"}, {"measurement": "Activity", "setting": "[2]", "value": ">0.25", "unit": "mg/mL"}, {"measurement": "Activity", "setting": "[3]", "value": ">0.25", "unit": "mg/mL"}]}
{"compound": "O=C1c2ccccc2C(=O)c2c1ccc(O)c2O", "note": "[ATHRAQUINONES A]", "values": [{"measurement": "Activity", "setting": "[1]", "value": ">0.25", "unit": "mg/mL"}, {"measurement": "Activity", "setting": "[2]", "value": ">0.25", "unit": "mg/mL"}, {"measurement": "Activity", "setting": "[3]", "value": ">0.25", "unit": "mg/mL"}]}
{"compound": "COc1c(O)cc2c(c1O)C(=O)c1c(cc(C)c(O)c1OC)C2=O", "note": "[AURANTIOOBTUSIN]", "values": [{"measurement": "Activity", "setting": "[1]", "value": ">0.25", "unit": "mg/mL"}, {"measurement": "Activity", "setting": "[2]", "value": ">0.25", "unit": "mg/mL"}, {"measurement": "Activity", "setting": "[3]", "value": ">0.25", "unit": "mg/mL"}]}
{"compound": "COc1cc2c(c(OC)c1OC)C(=O)c1c(cc(C)c(O)c1OC)C2=O", "note": "[CHRYSOOBTUSIN]", "values": [{"measurement": "Activity", "setting": "[1]", "value": 0.25, "unit": "mg/mL"}, {"measurement": "Activity", "setting": "[2]", "value": 0.25, "unit": "mg/mL"}, {"measurement": "Activity", "setting": "[3]", "value": 0.25, "unit": "mg/mL"}]}
{"compound": "Cc1cc(O)c2c(c1)C(=O)c1cccc(O)c1C2=O", "note": "[CHRYSOPHANOL]", "values": [{"measurement": "Activity", "setting": "[1]", "value": ">0.25", "unit": "mg/mL"}, {"measurement": "Activity", "setting": "[2]", "value": ">0.25", "unit": "mg/mL"}, {"measurement": "Activity", "setting": "[3]", "value": ">0.25", "unit": "mg/mL"}]}
{"compound": "O=C1c2cccc(O)c2C(=O)c2c(O)cccc21", "note": "[DANTHRON]", "values": [{"measurement": "Activity", "setting": "[1]", "value": ">0.25", "unit": "mg/mL"}, {"measurement": "Activity", "setting": "[2]", "value": ">0.25", "unit": "mg/mL"}, {"measurement": "Activity", "setting": "[3]", "value": ">0.25", "unit": "mg/mL"}]}
{"compound": "Cc1cc(O)c2c(c1)C(=O)c1cc(O)cc(O)c1C2=O", "note": "[EMODIN]", "values": [{"measurement": "Activity", "setting": "[1]", "value": ">0.25", "unit": "mg/mL"}, {"measurement": "Activity", "setting": "[2]", "value": ">0.25", "unit": "mg/mL"}, {"measurement": "Activity", "setting": "[3]", "value": ">0.25", "unit": "mg/mL"}]}
{"compound": "COc1c(O)c(C)cc2c1C(=O)c1c(O)cccc1C2=O", "note": "[OBTUSIFOLIN]", "values": [{"measurement": "Activity", "setting": "[1]", "value": 0.25, "unit": "mg/mL"}, {"measurement": "Activity", "setting": "[2]", "value": 0.25, "unit": "mg/mL"}, {"measurement": "Activity", "setting": "[3]", "value": ">0.25", "unit": "mg/mL"}]}
{"compound": "COc1cc(O)c2c(c1)C(=O)c1cc(C)cc(O)c1C2=O", "note": "[PHYSCION]", "values": [{"measurement": "Activity", "setting": "[1]", "value": 0.25, "unit": "mg/mL"}, {"measurement": "Activity", "setting": "[2]", "value": ">0.25", "unit": "mg/mL"}, {"measurement": "Activity", "setting": "[3]", "value": 0.25, "unit": "mg/mL"}]}
{"compound": "O=C1c2ccccc2C(=O)c2c(O)ccc(O)c21", "note": "[QUINIZARIN]", "values": [{"measurement": "Activity", "setting": "[1]", "value": ">0.25", "unit": "mg/mL"}, {"measurement": "Activity", "setting": "[2]", "value": ">0.25", "unit": "mg/mL"}, {"measurement": "Activity", "setting": "[3]", "value": ">0.25", "unit": "mg/mL"}]}
{"compound": "O=C(O)c1cc(O)c2c(c1)C(=O)c1cccc(O)c1C2=O", "note": "[RHEIN]", "values": [{"measurement": "Activity", "setting": "[1]", "value": 0.25, "unit": "mg/mL"}, {"measurement": "Activity", "setting": "[2]", "value": 0.25, "unit": "mg/mL"}, {"measurement": "Activity", "setting": "[3]", "value": 0.25, "unit": "mg/mL"}]}
